In patent US6500405B1, “Use of certain amides as probes for detection of antitubulin activity and resistance monitoring” (Dow AgroSciences LLC, priority 1996, dated 2002):

How the values were obtained:
[1] = tested on: tubulin in colon cancer cell line HCT-116; experiment: Whole cell binding assay, tritiated S-enantiomer of compound 2 as probe, colon cancer cell line HCT-116; settings: for Binding of radioligand (% control): HCT-116, 1 hour preincubation, 1 hour with radioligand; for Effect on binding of the radioligand (in words): HCT-116, tritiated S-enantiomer of compound 2
Description: Effect of antitubulin compounds on binding of the tritiated S-enantiomer of compound 2 to tubulin in a whole cell binding assay using the colon cancer cell line HCT-116 is shown by this example.
The colon cancer cell line HCT-116 (obtained from the American Type Culture Collection) was cultured in 75 cm^2 flasks containing McCoy's 5a Modified Medium with 10% heat-inactivated fetal bovine serum, 50 U/ml of penicillin G and 50 U/ml of streptomycin sulfate. A cell suspension was prepared by trypsinization of the culture, and adjusted to a density of 10^6 cells/ml by dilution into incomplete medium (medium lacking serum, penicillin G and streptomycin). Aliquots (150 μl) of cell suspension were added to wells of 96-well glass fiber filter plates (Millipore Multiscreen® plates, 1 μm glass fiber, Type B). Wells then received 30 μl of a solution of the test antitubulin compound in incomplete medium/DMSO mixture (8.5:1, v/v) or 30 μl of the incomplete medium/DMSO mixture alone (control). After mixing, the plates were incubated at 37° C. for 1 hour, then 25 μl of 0.8 μM tritium-labeled S-enantiomer of compound 2 was added to each well. After mixing, the plates were incubated at 37° C. for 1 hour, then binding of the radioligand to tubulin was stopped by adding 50 μl of 100 μM unlabeled compound 2. The fluid was removed from the plate by vacuum filtration through the glass fiber, then 100 μl of ice-cold 10% trichloroacetic acid was added to each well. The plates were incubated for 1 h at 4° C., then the fluid was removed by filtration. Ice-cold ethanol (250 μl) was added to each well, the plates incubated for 1 h at 4° C., then the ethanol was removed by filtration. Wells were washed 4 more times with 250 μl of ice-cold ethanol. After drying the plates at 37° C. for 20 min, the glass fiber filters were punched out of the wells into scintillation vials, 5 ml of scintillation fluid was added to each vial, and the samples were counted in a scintillation counter to determine the amount of bound radioactivity. The effects of different antitubulin compounds on binding of the radioligand are presented in Table 11 with the amounts of radioligand bound in the presence of each antitubulin compound expressed as a percentage of the amount of radioligand bound in the control.

isolated bovine tubulin = experiment: Binding assay, tritiated compound 1 as probe, isolated bovine tubulin; settings: 100 μM final concentration; 10 μM tubulin; 30 minutes preincubation, 120 minutes with tritiated compound 1 at 37° C.
Description: Assay mixtures contained 10 μM isolated tubulin in 1.0 M sodium glutamate, pH 6.6 containing 1 mM MgCl2, and 2.5 μDMSO (control) or 2.5 μl of test compound dissolved in DMSO in 0.5 ml polypropylene tubes. Mixtures were incubated at 37° C. for 30 minutes, then 2.5 μl of a 640 μM solution of tritium-labeled compound 1 in DMSO was added. After further incubation at 37° C. for 120 minutes, aliquots (80 μl) of the assay mixtures were applied to 2.3 cm diameter Whatman 3MM filter paper disks, which were dried for 15 seconds under warm air, immersed in 3 ml of ice-cold 10% trichloroacetic acid, and left overnight at 4° C. Disks were transferred to 5% trichloroacetic acid for 30 minutes, washed twice more in 5% trichloroacetic acid, washed for 30 minutes at 37° C. in ethanol/ether (1:1, v/v), then for 15 min at room temperature in ethanol/ether (1:1, v/v), and finally in two successive washes for 15 minutes each in ether at room temperature. The disks were dried, transferred to scintillation vials containing 10 ml of Hydrofluor™ and counted in a scintillation counter.

tubulin = experiment: Binding of S versus R enantiomers to tubulin; settings: S enantiomer versus corresponding R enantiomer
brain tubulin = settings: cited from earlier work
plant tubulin = settings: cited from earlier work

SMILES	Binding of radioligand (% control) ([1]; 0.1 μM)	Binding of radioligand (% control) ([1]; 1 μM)	Binding of radioligand (% control) ([1]; 10 μM)	Binding of radioligand (% control) ([1]; 100 μM)	Effect on binding of the radioligand (in words) [1]	Binding (% control) (isolated bovine tubulin)	melting point [°C]	Binding of the S enantiomer to tubulin compared with the R enantiomer (tubulin)	Inhibition of brain tubulin polymerization (brain tubulin)	Inhibition of plant tubulin polymerization (plant tubulin)
COc1cc([C@@H]2c3cc4c(cc3[C@H](O)[C@H]3COC(=O)[C@H]23)OCO4)cc(OC)c1OC [Podophyllotoxin, podophyllotoxin]	37	0	0	0	reduced binding of the radioligand	21.7	–	–	–	–
CC[C@]1(O)C[C@@H]2CN(CCc3c([nH]c4ccccc34)[C@@](C(=O)OC)(c3cc4c(cc3OC)N(C)[C@H]3[C@@](O)(C(=O)OC)[C@H](OC(C)=O)[C@]5(CC)C=CCN6CC[C@]43[C@@H]65)C2)C1 [Vinblastine, vinblastine]	155	218	286	323	increased binding of the radioligand	90.7	–	–	–	–
COC(=O)Nc1nc2ccc(C(=O)c3cccs3)cc2[nH]1 [Nocodazole, nocodazole]	102	99	74	44	reduced binding of the radioligand	31.3	–	–	–	–
CCC(C)(NC(=O)c1cc(Cl)c(N)c(C=NOC)c1)C(=O)CCl (stereo not shown) [Compound 2, 4-amino-3-chloro-5-methoxyiminomethyl-N-(3-chloro-1-ethyl-1-methyl-2-oxopropyl)benzamide]	–	–	–	–	–	–	140 to 141	bind more effectively to tubulin	–	–
COP(=S)(NC(C)C)Oc1ccc(C)cc1[N+](=O)[O-] (stereo not shown) [amiprophosmethyl]	–	–	–	–	–	–	–	–	not brain tubulin	inhibit the polymerization of plant tubulin
